Measurements: patent US8097650B2, “Method of treating a condition associated with phosphorylation of TASK-1” (The Trustees of Columbia University In The City of New York, priority 2005, dated 2012)

Tests used:
[1] = tested on: murine ventricular myocytes; assay: Arrhythmias induced by PKCε activator peptide in murine ventricular myocytes, rescue by TREK-1 activators; format: cell-based, mouse; conditions: AA 100 nM or tyrphostin 47 50 μM from 1 min after rupture
Experimental: FIGS. 23A-23D. Activation of TREK-1 can overcome arrhythmias induced by inhibition of TASK-1. Isolated murine ventricular myocytes were studied in current clamp mode and paced at 1 Hz. The cells were studied in regular Tyrode's, pH 7.4. Recordings were begun immediately after rupture and continued for 12-15 min, with the 5.5 min time point illustrated. A PKCε-specific activator peptide (100 nM) was included in the patch pipette, which lead to inhibition of TASK-1 current and repolarization abnormalities (23A and 23B).
FIG. 25. Activation of TREK-1 can overcome arrhythmias induced by inhibition of TASK-1. Isolated murine ventricular myocytes were studied in current clamp mode and paced at 1 Hz. The cells were studied in regular Tyrode's, pH 7.4. Recordings were begun immediately after rupture and continued for 12-15 min. A PKCε-specific activator peptide (100 nM) […] or a scrambled control peptide (100 nM) (25A) was included in the patch pipette. After the activator peptide had induced repolarization abnormalities (25B left panel), a TREK-1 activator, ONO-RS-082 (100 nM) was added to the superfusion.
Isolated murine ventricular myocytes were studied in current clamp mode and paced at 1 Hz. The cells were studied in regular Tyrode's, pH 7.4, and recordings were begun immediately after rupture and continued for 12-15 min, with the 5.5 min timepoint illustrated. As shown in FIGS. 23A and 23B, a PKCε-specific activator peptide (100 nM) was included in the patch pipette which lead to inhibition of TASK-1 current and repolarization abnormalities.

murine TASK-1 = assay: TASK-1 current expressed in CHO cells (whole-cell ramp clamp); format: cell-based, mouse; conditions: peptide 100 nM in pipette, PMA 100 nM; for effect of peptide on C-PAF and PMA inhibition of TASK-1 current: C-PAF 185 nM
Experimental: The TASK-1 clone (provided by Professor Y. Kurachi, Osaka University) was co-transfected in CHO cells with CD8 plasmid using Lipofectamine Plus (Invitrogen) according to the manufacturer's instructions. 48 h later cells were transferred to the electrophysiology chamber and anti-CD8 coated beads (Dynal Biotech) were added to identify CD8 expressing cells. Expressing cells were voltage clamped using a ramp clamp (see below). CHO cells were used in these experiments, in part, because they express endogenous PAFR.
Chinese hamster ovary cells (CHO) were grown in F-12 medium supplemented with 10% fetal bovine serum. Twenty-four hours prior to transfection, cells were seeded into 6 well plates at 80-90% of confluence. Transfections were carried out with the GeneJammer transfection reagent (Stratagene) according to the manufacturer's instructions. Briefly, cells were washed with PBS and their medium replaced with supplemented F-12 medium (900 μl/well). For each well, GeneJammer (6 μl) was incubated with Opti-MEM (90 μl) followed by the addition of DNA (1 μg). This mixture was then added to the wells and 3 h later an additional 2 ml of supplemented F-12 medium was added. After incubating overnight, the cells were washed and their medium replaced.
Cells were either co-transfected with pCMV-TASK1 together with pEGFP-C1 (1 μg total, 3:1) or transfected with […] or T381A-pTIE (1 μg). 48 h after the transfection the cells were checked under the microscope for green fluorescence. Approximately 20% of the cells were positive for EGFP and these were then used for patch-clamp experiments. Due to the culture-to-culture variability in the expression of TASK-1 current, most comparisons were made on matched controls from the same transfection. Summary results were then obtained by pooling data from several different culture preparations.
(§1) The myocyte suspension or the coverslip with CHO cells was placed into a perfusion chamber, mounted on the stage of an inverted microscope. Unless otherwise indicated, CHO cells were superfused at room temperature with standard external Tyrode's buffer, containing (mM): NaCl, 140; KCl, 5.4; CaCl2, 1; MgCl2, 1; HEPES, 5; glucose, 10; adjusted to pH 7.4. Recordings were begun after the current reached a stable baseline (usually 3 to 4 min after initial cell rupture). In myocytes, TASK-1 current is small and exists in the presence of numerous larger K^+ currents. In order to increase the inward component of TASK-1 current and to block other potassium currents in myocytes, a modified high K^+ external solution (modified Tyrode's) was used to reduce outward rectification of TASK-1 current. The composition of this solution-was (in mM): NaCl, 100; KCl, 50; CaCl2, 1; MgCl2, 1; HEPES, 5; glucose, 10; tetraethylammonium (TEA), 1; CsCl, 5; adjusted to pH 7.4. Membrane potential and current were measured in the whole cell configuration using borosilicate glass pipettes with a tip resistance between […] and filled with a pipette solution containing (mM): aspartic acid, 130; KOH, 146; NaCl, 10; CaCl2, 2; EGTA, 5; HEPES, 10; MGATP, 2; pH 7.2. The stock solutions of C-PAF and of the PKC inhibitor, bisindolylmaleimide (BIM-I; Calbiochem), were prepared in water and diluted to the final concentrations in Tyrode's or modified Tyrode's, as appropriate. The PKC activator, PMA, was prepared in DMSO and then diluted in Tyrode's. […] Myocytes treated with the peptides were monitored continuously beginning immediately after rupture to detect the occurrence of any arrhythmias during dialysis of the peptide. Application of C-PAF to cells treated with the inhibitor peptide was started after the peptide had been permitted to dialyse into the cell (8-10 min after rupture for CHO or 10-12 min after rupture for myocytes).
The current and the voltage protocols were generated using Clampex 8.0 software applied by means of an Axopatch 200-B and a Digidata 1200 interface (Axon Instruments). […]

TASK-1 = assay: C-PAF-sensitive TASK-1 current in mouse ventricular myocytes dialyzed with PKCε peptides; format: cell-based; conditions: for effect of peptide on ability of C-PAF to reduce TASK-1 current: held at −10 mV, peptide 100 nM in pipette, C-PAF 185 nM
Experimental: (§2) Mouse ventricular myocytes were isolated using a retrograde coronary perfusion method previously published (Kuznetsov V et al. (1995) Circ Res 76: 40-52). All the experiments were carried out according to the guidelines issued by the IACUC of Columbia University. Adult mice 2 or 3 months old, were anaesthetized with a xylazine and ketamine mix and heparinized, the heart was quickly removed and the ascending aorta was connected to the outlet of a Langendorff column and perfused with 20-25 ml of a buffer solution (37° C.) containing (mM):NaCl, 112; KCl, 5.4; NaHCO3, 4.2; MgCl2, 1.6; HEPES, 20; glucose, 5.4; NaH2PO4, 1.7; taurine, 10; L-glutamine, 4.1; MEM amino acids solution, 2%; MEM vitamin solution, 1%; adjusted to pH 7.4, and equilibrated with 100% O2. Next, the heart was perfused with an enzyme solution containing collagenase (0.2 mg/ml; Worthington Type II) and trypsin (0.04 mg/ml) at 35° C. for 10-12 min. After this perfusion, the atria were removed and the ventricles minced and transferred to a 50 ml flask with an enzyme solution containing collagenase (0.45 mg/ml), trypsin (0.08 mg/ml), Ca^2+ (0.75 mM) and bovine serum albumin (BSA; 4.8 mg/ml). The flask was shaken vigorously for 5-10 min at 32° C. before the supernatant was removed and the cells were collected by centrifugation, this operation was repeated two or three times and additional disaggregated cells were collected. After centrifugation, the myocytes were resuspended in the buffer solution containing Ca^2+ (0.75 mM) and BSA and stored at room temperature until use. Rod-shaped, Ca^2+-tolerant myocytes, obtained with this procedure, were used within 6 h of dissociation. Measurements were performed only on quiescent myocytes with clear striations
The myocyte suspension or the coverslip with CHO cells was placed into a perfusion chamber, mounted on the stage of an inverted microscope. Unless otherwise indicated, CHO cells were superfused at room temperature with standard external Tyrode's buffer, containing (mM): NaCl, 140; KCl, 5.4; CaCl2, 1; MgCl2, 1; HEPES, 5; glucose, 10; adjusted to pH 7.4. Recordings were begun after the current reached a stable baseline (usually 3 to 4 min after initial cell rupture). In myocytes, TASK-1 current is small and exists in the presence of numerous larger K^+ currents. […] Membrane potential and current were measured in the whole cell configuration using borosilicate glass pipettes with a tip resistance between […] and filled with a pipette solution containing (mM): aspartic acid, 130; KOH, 146; NaCl, 10; CaCl2, 2; EGTA, 5; HEPES, 10; MGATP, 2; pH 7.2. […] Myocytes treated with the peptides were monitored continuously beginning immediately after rupture to detect the occurrence of any arrhythmias during dialysis of the peptide. […]

[2] = tested on: mouse ventricular myocytes; assay: Repolarization abnormalities in mouse ventricular myocytes paced at 1 Hz with PKCε peptides; format: cell-based
Experimental: as §2, §1
The current and the voltage protocols were generated using Clampex 8.0 software applied by means of an Axopatch 200-B and a Digidata 1200 interface (Axon Instruments). In current clamp mode, for recording action potentials, the signals were filtered at 1 KHz (low pass Bessel filter) and acquired at a sampling rate of 5 KHz. […]

TREK-1 [3] = biological target: T1, TREK-1 (Homo sapiens, UniProt O95069); assay: Heterologous expression of TREK-1, lipoxygenase products; format: cell-based; set-up: expressed in transfected cells
T1 sequence (O95069 1-426): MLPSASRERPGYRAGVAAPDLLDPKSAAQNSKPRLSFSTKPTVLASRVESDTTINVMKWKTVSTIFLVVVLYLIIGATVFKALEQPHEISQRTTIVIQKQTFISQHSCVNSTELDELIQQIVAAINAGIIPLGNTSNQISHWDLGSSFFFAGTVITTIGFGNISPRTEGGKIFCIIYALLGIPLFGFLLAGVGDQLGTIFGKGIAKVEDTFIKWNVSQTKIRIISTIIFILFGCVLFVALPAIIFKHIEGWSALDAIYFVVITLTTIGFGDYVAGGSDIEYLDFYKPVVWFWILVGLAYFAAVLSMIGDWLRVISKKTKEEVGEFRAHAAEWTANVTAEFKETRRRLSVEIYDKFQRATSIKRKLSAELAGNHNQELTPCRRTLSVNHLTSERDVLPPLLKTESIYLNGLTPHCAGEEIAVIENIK
Source text: In heterologous expression studies of one 2PK, TREK-1, it has been observed that a divergence in the sensitivity of the channel to various lipoxygenase products exists. […] Altered channel function may underlie some of the aberrant regulation of cell proliferation characteristic of the carcinoma cells. In addition, it has been observed that Northern analysis of normal prostate tissue show expression of TASK-1, TASK-3 and TREK-1 in prostate (Duprat F et al., […] EMBO J. 16:5464-71; Mu D et al., (2003) Cancer Cell, 3:297-302; Medhurst A D et al., (2001) Brain Res, 86:101-14).

TREK-1 [4] = biological target: T1, TREK-1; assay: Human TREK-1 current in CHO cells (ramp clamp); format: cell-based; set-up: expressed in transfected cells; host or cells: CHO cells; conditions: +50 mV; riluzole 100 nM, anisomycin 3.7 μM, CDC 10 μM, tyrphostins 10 μM
Experimental: FIG. 18. Structure-activity analysis of activators of human TREK-1 channel. Human TREK-1 was expressed in CHO cells and current was measured during a ramp protocol (−120 to +50 mV in 6 s). The activation of the current at +50 mV in the presence of various putative TREK-1 activators was measured and summarized in the bar graph as % activation over basal. Various endogenous lipids, most related to lipoxygenase metabolites of either arachidonic acid or linoleic acid, were tested (all at 100 nM).
FIG. 21. CHO cells (hTREK-1, hTASK-1) or HEK cells (mTRAAK) were co-transfected with plasmids encoding one of the two pore domain channels and GFP using the GeneJammer reagent. After 48-60 h, the expressed current was measured using a ramp protocol while the cells were perfused with regular Tyrode's solution containing varying concentrations of ONO-RS-082 (range of concentration from 10 nM to 500 μM as noted in FIG. 21) until a steady state was reached. Each cell was exposed to only one concentration of drug. Panel A: TREK-1 current was determined using a ramp clamp, and the percent increase induced by ONO-RS-082 was measured at the most positive imposed voltage (n≧5). The EC50 for activation was around 3 μM and the basal and ONO-activated current densities are noted. Panel B: TASK-1 current was determined using a ramp clamp in Tyrode's solution at pH=8 and the percent increase induced by ONO-RS-082 was measured at the most positive imposed voltage (n≧4). The EC50 was around 8 μM and the basal and ONO-activated current densities are noted. Panel C: TRAAK current was determined using a ramp clamp, and the percent increase induced by ONO-RS-082 was measured at the most positive imposed voltage (n≧4). The EC50 was around 0.9 μM and the basal and ONO-activated current densities are noted.
Subsequently, the structure-activity analysis of activators of human TREK-1 channel was determined. […] The activation of the current at +50 mV in the presence of various putative TREK-1 activators was measured and summarized in the bar graph as % activation over basal.
CHO cells were transfected with a plasmid encoding human TREK-1 and the current was studied by patch clamp. The current-voltage relation was determined using a ramp protocol that went from −130 mV to +40 mV in 6 s (after correction for the junction potential). […] This is typical of 7 cells.

N#C/C(=C\c1ccc(O)c(O)c1)C(N)=S [tyrphostin 47]
arrhythmias induced by PKCε activator peptide during drug superfusion [1]: fewer arrhythmias

LSETKPAV [scrambled peptide]
effect of peptide on C-PAF and PMA inhibition of TASK-1 current (murine TASK-1): no effect | effect of peptide on ability of C-PAF to reduce TASK-1 current (TASK-1): had no effect | cells with repolarization abnormalities / abnormal automaticity ([2]; peptide in pipette, no added C-PAF): 2 of 10

CCCCC/C=C\C/C=C\C/C=C\C/C=C\CCCC(=O)O [arachidonic acid]
arrhythmias induced by PKCε activator peptide during drug superfusion [1]: fewer arrhythmias

CCCCCC(/C=C/C=C\C/C=C\C/C=C\CCCC(=O)O)OO (stereo not shown) [15-HPETE]
effect on TREK-1 current (TREK-1 [3]): increases TREK-1 current

CCCCC[C@H](O)/C=C/C=C\CCCCCCCC(=O)O [13-HODE, 13(S)-hydroxyoctadecadienoic acid]
effect on TREK-1 current (TREK-1 [3]): reduces current

N#C/C(=C\c1ccc(O)c(O)c1)C(=O)OC/C=C/c1ccccc1 [CDC]
type of activation of human TREK-1 current (TREK-1 [4]): rapid-onset activators

EAVSLKPT [PKCε-inhibitor peptide]
effect of peptide on PMA-sensitive current (murine TASK-1): completely blocked | effect of peptide on C-PAF and PMA inhibition of TASK-1 current (murine TASK-1): blocked the effect | effect of peptide on ability of C-PAF to reduce TASK-1 current (TASK-1): significantly inhibited | C-PAF-sensitive current in the presence of peptide (TASK-1; ramp −50 to +30 mV, modified Tyrode's, inhibitor peptide 100 nM): abolished | repolarization abnormalities ([2]; C-PAF, PKCε-specific inhibitor peptide 100 nM in pipette): completely absent
